Measured values from US12649709B2, “Naphthoquinone-based chalcone derivatives and uses thereof” (priority 2020, dated 2026).

Tests used:
[1] = tested on: Autobioluminescent Human Epithelial Kidney cells (HEK-293); experiment: Cellular metabolic activity, autobioluminescent kidney cells; format: cell-based; conditions: FIG. 7A; Hematin:RLS3 1:1,000; 0.5 pM-5 nM RLS3; 14-hour period post-exposure; kidney cell model
Experimental: (§1) Autobioluminescent Human Epithelial Kidney cells (HEK-293, 490 Biotech) and Human Liver cells (Hep-G2, 490 Biotech) and Human primary astrocytes (490 Biotech) were seeded at 10,000 kidney cells/well, or 50,000 liver cells/well, in 96-well tissue culture treated plates (Falcon) in growth media. The growth media consists of the following: DMEM (Hyclone), 10% heat-inactivated FBS (Gibco), 1% Sodium Pyruvate (HyClone), 1% antibiotic/antimyotic (Hyclone) and 100 μg G418/ml (Gibco). Cells were grown for 2 days prior to treatment with dimenadione derivative compounds. The media was aspirated and cells were washed with 1×PBS (Fisher, SH30256.01) and treated with serial dilutions ranging from 5 fM to 5 μM (1 mL/well) dimenadione derivative compounds. The treated cells were incubated at 37° C. and 5% CO2 for x hours. At each concentration, bioluminescence was measured with either a BMG Labtech clarioSTAR plate reader or an IVIS CCD camera system. Any changes in cell bioluminescence were recorded as photons/per well. […] The relative change in light output was measured between each treatment and the vehicle control at each timepoint. The amount of light being made is proportional to metabolic activity (as measured by FMNH2 availability, which provides the same information as a traditional ATP content assay (i.e., CellTiter Glo). […]

[2] = tested on: Human Liver cells (Hep-G2); experiment: Cellular metabolic activity, autobioluminescent liver cells; format: cell-based; conditions: for concentration-dependent effect on cellular metabolism over time: 24 h
Experimental: Autobioluminescent Human Epithelial Kidney cells (HEK-293, 490 Biotech) and Human Liver cells (Hep-G2, 490 Biotech) and Human primary astrocytes (490 Biotech) were seeded at 10,000 kidney cells/well, or 50,000 liver cells/well, in 96-well tissue culture treated plates (Falcon) in growth media. The growth media consists of the following: DMEM (Hyclone), 10% heat-inactivated FBS (Gibco), 1% Sodium Pyruvate (HyClone), 1% antibiotic/antimyotic (Hyclone) and 100 μg G418/ml (Gibco). Cells were grown for 2 days prior to treatment with dimenadione derivative compounds. […] The treated cells were incubated at 37° C. and 5% CO2 for x hours. At each concentration, bioluminescence was measured with either a BMG Labtech clarioSTAR plate reader or an IVIS CCD camera system. Any changes in cell bioluminescence were recorded as photons/per well. The replicates were averaged, and all conditions were normalized to background light detection (medium-only control wells). The vehicle-only controls were compared to the untreated controls to make sure there was not change in metabolic activity due to the solvent. All other treatments were then compared to the vehicle control. The relative change in light output was measured between each treatment and the vehicle control at each timepoint. The amount of light being made is proportional to metabolic activity (as measured by FMNH2 availability, which provides the same information as a traditional ATP content assay (i.e., CellTiter Glo).
5 fM to 5 μM (10 μL/well) of individual compounds solubilized in DMSO were incubated with cells in 96-well plates. The reference compound was DMSO-only vehicle control, at a final concentration of 0.1% DMSO. Importantly maximally effective concentrations of the compound, in the mid-picomolar to mid-nanomolar range, increased metabolic activity by as much as 2.5-fold. This observation aligns with the core hypothesized mechanism of the compound which has been designed to integrate into the mitochondrial ETC and improve energy production in the form of ATP in mitochondria. Increased energy production is reflected in overall cellular metabolism of the cells.

primary astrocytes = experiment: Cellular metabolic activity, autobioluminescent neuronal (astrocyte) cells; format: cell-based, murine; conditions: 24 hour period
Experimental: as §1

[3] = FIG. 8A, complexed with Hematin 1:1,000, 0.5 nM-5 μM, 24-hour period post-exposure, liver cells
[4] = complexed with hematin (FIG. 8A), liver cells
[5] = without hematin complexation (FIG. 8B), 1 pM-10 μM, liver cells

Row | Structure (SMILES) | metabolic activity (bioluminescence) over time [1] | metabolic activity (bioluminescence) over time ([2]; FIG. 7B, Hematin:RLS3 1:1,000, 500 pM-5 μM RLS3, 14 h period post-exposure, liver cell model as printed) | metabolic activity (bioluminescence) over time [2, 3] | concentration-dependent effect on cellular metabolism over time [2, 4] | concentration-dependent effect on cellular metabolism over time [2, 5] | effect on cellular metabolism (primary astrocytes; FIG. 9A, 100 pM and 1 nM RLS5 with Hematoporphyrin complexation (1:1000)) | effect on cellular metabolism (primary astrocytes; FIG. 9B, 100 pM and 1 nM RLS5 without Hematoporphyrin complexation)
1 | COc1cc(C)c(OC)c2ccccc12 [RLS3, 1,4-Dimethoxy-2-Methylnaphthalene] | increase in metabolic activity over time | increase in metabolic activity over time | increase in metabolic activity over time | seemed to show a concentration-dependent effect | did not |  | 
2 | COc1c(C)c(C=O)c(OC)c2ccccc12 [RLS4, 1,4-Dimethoxy-3-Methyl-2-Naphthaldehyde] |  |  | increase in metabolic activity over time | seemed to show a concentration-dependent effect | did not |  | 
3 | COc1c(C)c(/C=C/C(=O)/C=C(O)/C=C/c2c(C)c(OC)c3ccccc3c2OC)c(OC)c2ccccc12 [RLS5, (1E,4Z,6E)-1,7-Bis(1,4-Dimethoxy-3-methylnaphthalen-2-yl)-5-Hydroxyhepta-1,4,6-trien-3-one] |  |  |  |  |  | slight concentration dependent effect | slight concentration dependent effect
